Values quoted from earlier work in US12174205B2, “Phosphatidylethanolamine-specific probes” (Northwestern University, priority 2014, dated 2024).

Settings: at micromolar concentration: membrane distortion, PE translocation

## cinnamycin
  cytotoxicity: exhibit cytotoxicity
